For the test, the target named is T1, vanilloid receptor 1 (VR1/TRPV1 receptor) (Homo sapiens, UniProt Q8NER1).
T1 construct: expressed in transfected cells; host or cells: CHO K1
The test is described as follows: Functional testing on the vanilloid receptor 1 (FLIPR Ca2+ influx assay, capsaicin). Conditions: for Ki: Cap=capsaicin (100 nM), Ki from IC50 by Cheng-Prusoff equation, read-out: (f) Ki (human being) [nM] Cap. In kind it is cell-based, human being. The method, then: Furthermore, preference may be given to compounds according to the invention that cause a 50 percent displacement of capsaicin, which is present at a concentration of 100 nM, in a FLIPR assay with CHO K1 cells which were transfected with the human VR1 gene at a concentration of less than 2,000 nM, preferably less than 1,000 nM, particularly preferably less than 300 nM, most particularly preferably less than 100 nM, even more preferably less than 75 nM, additionally preferably less than 50 nM, most preferably less than 10 nM.
In the process, the Ca^2+ influx is quantified in the FLIPR assay with the aid of a Ca^2+-sensitive dye (type Fluo-4, Molecular Probes Europe BV, Leiden, the Netherlands) in a fluorescent imaging plate reader (FLIPR, Molecular Devices, Sunnyvale, USA), as described hereinafter.
Pharmacological Methods I. Functional Testing Carried Out on the Vanilloid Receptor 1 (VR1/TRPV1 Receptor) […]
The number of cells in the suspension is set to 3×10^5 per mL and 150 μL of this suspension are in each case introduced into a recess in the cell culture plates coated as described hereinbefore. In the incubator the plates are left for two to three days at 37° C., 5% by volume of CO2 and 95% relative humidity. Subsequently, the cells are loaded with 2 μM of Fluo-4 and 0.01% by volume of Pluronic F127 (Molecular Probes Europe BV, Leiden, the Netherlands) in HBSS buffer (Hank's buffered saline solution, Gibco Invitrogen GmbH, Karlsruhe, Germany) for 30 min at 37° C., washed 3 times with HBSS buffer and after further incubation for 15 minutes at room temperature used for Ca^2+ measurement in a FLIPR assay. The Ca^2+-dependent fluorescence is in this case measured before and after the addition of substances (λex=488 nm, λem=540 nm). Quantification is carried out by measuring the highest fluorescence intensity (FC, fluorescence counts) over time.
The FLIPR protocol consists of 2 substance additions. First the compounds to be tested (10 μM) are pipetted onto the cells and the Ca^2+ influx is compared with the control (capsaicin 10 μM). This provides the result in % activation based on the Ca^2+ signal after the addition of 10 μM of capsaicin (CP). After 5 minutes' incubation, 100 nM of capsaicin are applied and the Ca^2+ influx is also determined.
Desensitising agonists and antagonists lead to suppression of the Ca^2+ influx. The % inhibition is calculated compared to the maximum achievable inhibition with 10 μM of capsazepine. Triple analyses (n=3) are carried out and repeated in at least 3 independent experiments (N=4). Starting from the percentage displacement caused by different concentrations of the compounds to be tested of general formula I, IC50 inhibitory concentrations which cause a 50-percent displacement of capsaicin were calculated. Ki values for the test substances were obtained by conversion by means of the Cheng-Prusoff equation (Cheng, Prusoff; Biochem. Pharmacol. 22, 3099-3108, 1973).
The affinity of the compounds of to the invention for the vanilloid receptor 1 (VR1/TRPV1 receptor) was determined as described hereinbefore (pharmacological method I). The compounds of the invention display outstanding affinity to the VR1/TRPV1 receptor (Table 2). In Table 2 the abbreviations below have the following meanings: • Cap=capsaicin • AG=agonist • NE=no effect
The value after the “@” symbol indicates the concentration at which the inhibition (as a percentage) was respectively determined.

T1 sequence (Q8NER1 whole entry): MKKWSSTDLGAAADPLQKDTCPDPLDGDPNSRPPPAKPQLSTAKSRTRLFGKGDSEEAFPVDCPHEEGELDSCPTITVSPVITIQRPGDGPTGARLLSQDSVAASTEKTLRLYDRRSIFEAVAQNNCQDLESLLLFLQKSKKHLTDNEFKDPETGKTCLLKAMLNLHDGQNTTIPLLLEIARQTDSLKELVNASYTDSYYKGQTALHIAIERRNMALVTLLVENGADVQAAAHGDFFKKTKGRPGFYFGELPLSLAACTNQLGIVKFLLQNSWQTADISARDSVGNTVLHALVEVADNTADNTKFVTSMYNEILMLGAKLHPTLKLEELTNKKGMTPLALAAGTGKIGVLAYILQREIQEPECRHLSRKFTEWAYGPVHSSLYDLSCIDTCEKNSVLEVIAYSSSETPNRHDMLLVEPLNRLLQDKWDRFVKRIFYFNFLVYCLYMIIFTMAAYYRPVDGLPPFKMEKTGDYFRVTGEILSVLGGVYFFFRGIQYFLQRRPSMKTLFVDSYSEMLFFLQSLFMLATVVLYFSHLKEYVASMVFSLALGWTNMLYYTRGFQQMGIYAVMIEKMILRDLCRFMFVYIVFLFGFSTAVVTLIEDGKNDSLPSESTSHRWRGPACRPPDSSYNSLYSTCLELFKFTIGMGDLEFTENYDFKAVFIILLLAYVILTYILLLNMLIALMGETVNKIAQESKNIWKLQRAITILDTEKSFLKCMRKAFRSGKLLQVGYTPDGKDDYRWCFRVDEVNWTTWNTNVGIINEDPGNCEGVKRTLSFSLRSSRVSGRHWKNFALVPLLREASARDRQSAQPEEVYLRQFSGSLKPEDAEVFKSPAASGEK

The term Ki denotes the dissociation constant of the complex between target and ligand, obtained from inhibition or displacement. `CC1CCN(c2nc(C(C)(C)C)ccc2CNC(=O)Nc2cccc3ncccc23)CC1` [Example 64, 1-((6-Tert-butyl-2-(4-methylpiperidin-1-yl)pyridin-3-yl)methyl)-3-(quinolin-5-yl)urea]: the inhibition constant (Ki) turned out to be 1 nM.

Take `CC(C)Oc1nc(C(F)(F)F)ccc1CNC(=O)Nc1cccc2ncccc12` [Example 65, 1-((2-Isopropoxy-6-(trifluoromethyl)pyridin-3-yl)methyl)-3-(quinolin-5-yl)urea]: the inhibition constant (Ki) is 4 nM. As to `CC(C)(C)COc1nc(C(F)(F)F)ccc1CNC(=O)Nc1cccc2ncccc12` [Example 66, 1-((2-(Neopentyloxy)-6-(trifluoromethyl)pyridin-3-yl)methyl)-3-(quinolin-5-yl)urea], the inhibition constant (Ki) worked out at 2 nM. Still for that read-out and setting: the figure for `CCCCOc1nc(C(F)(F)F)ccc1CNC(=O)Nc1cccc2ncccc12` [Example 67, 1-((2-Butoxy-6-(trifluoromethyl)pyridin-3-yl)methyl)-3-(quinolin-5-yl)urea] is 2 nM. The same measure, in the same setting: the figure for `O=C(NCc1ccc(C(F)(F)F)nc1OC1CCC1)Nc1cccc2ncccc12` [Example 68, 1-((2-Cyclobutoxy-6-(trifluoromethyl)pyridin-3-yl)methyl)-3-(quinolin-5-yl)urea] is 2 nM. As a reminder, the inhibition is the relative decrease from the control value, in per cent. Turning to `CC1CCN(c2nc(C(F)(F)F)ccc2CNC(=O)Nc2ccc3ncccc3c2)CC1` [Example 69, 1-((2-(4-Methylpiperidin-1-yl)-6-(trifluoromethyl)pyridin-3-yl)methyl)-3-(quinolin-6-yl)urea], under “@1 μM, Cap=capsaicin, read-out: inhibition (as a percentage), (f) (human being) Cap”, the inhibition at 1 µM came to 40%.

As to `Cc1ccc2cc(NC(=O)NCc3ccc(C(F)(F)F)nc3N3CCC(C)CC3)ccc2n1` [Example 70, 1-((2-(4-Methylpiperidin-1-yl)-6-(trifluoromethyl)pyridin-3-yl)methyl)-3-(2-methylquinolin-6-yl)urea], the inhibitory constant (Ki) is 68 nM. Still for that read-out and setting: as for `O=C(NCc1ccc(C(F)(F)F)nc1SC1CCCCC1)Nc1ccc2cccnc2c1` [Example 71, 1-((2-(Cyclohexylthio)-6-(trifluoromethyl)pyridin-3-yl)methyl)-3-(quinolin-7-yl)urea], the figure is 5 nM; as for `Cc1ccc2cccc(NC(=O)NCc3ccc(C(F)(F)F)nc3N3CCC(C)CC3)c2n1` [Example 73, 1-((2-(4-Methylpiperidin-1-yl)-6-(trifluoromethyl)pyridin-3-yl)methyl)-3-(2-methylquinolin-8-yl)urea], 24 nM. Take `Cc1ccc2cccc(NC(=O)NCc3ccc(C(C)(C)C)cc3N3CCC(C)CC3)c2n1` [Example 74, 1-(4-Tert-butyl-2-(4-methylpiperidin-1-yl)benzyl)-3-(2-methylquinolin-8-yl)urea]: under “@5 μM, Cap=capsaicin, read-out: inhibition (as a percentage), (f) (human being) Cap”, the inhibition at 5 µM worked out at 24%. Take `CC1CCN(c2nc(C(C)(C)C)ccc2CNC(=O)Nc2cccc3cnccc23)CC1` [Example 76, 1-((6-Tert-butyl-2-(4-methylpiperidin-1-yl)pyridin-3-yl)methyl)-3-(isoquinolin-5-yl)urea]: the Ki came out at 0.1 nM. For the compound `CN(C)C1(c2ccccc2)CCN(c2nc(C(F)(F)F)ccc2CNC(=O)Nc2cccc3cnccc23)CC1` [Example 77, 1-((2-(4-(Dimethylamino)-4-phenylpiperidin-1-yl)-6-(trifluoromethyl)pyridin-3-yl)methyl)-3-(isoquinolin-5-yl)urea], the inhibition constant (Ki) is 4 nM.

In the case of `Cc1nccc2c(NC(=O)NCc3ccc(C(F)(F)F)nc3N3CCC(C)CC3)cccc12` [Example 78, 1-(1-Methylisoquinolin-5-yl)-3-((2-(4-methylpiperidin-1-yl)-6-(trifluoromethyl)pyridin-3-yl)methyl)urea], the Ki is 1 nM.

With `CC1CCN(c2nc(C(F)(F)F)ccc2CNC(=O)Nc2cccc3c(Cl)nccc23)CC1` [Example 79, 1-(1-Chloroisoquinolin-5-yl)-3-((2-(4-methylpiperidin-1-yl)-6-(trifluoromethyl)pyridin-3-yl)methyl)urea], the inhibitory constant (Ki) is 0.8 nM. With `COc1nccc2c(NC(=O)NCc3ccc(C(F)(F)F)nc3N3CCC(C)CC3)cccc12` [Example 80, 1-(1-Methoxyisoquinolin-5-yl)-3-((2-(4-methylpiperidin-1-yl)-6-(trifluoromethyl)pyridin-3-yl)methyl)urea], the Ki was 8 nM.

Consider `COc1nc(Cl)cc2c(NC(=O)NCc3ccc(C(F)(F)F)nc3N3CCC(C)CC3)cccc12` [Example 82, 1-(3-Chloro-1-methoxyisoquinolin-5-yl)-3-((2-(4-methylpiperidin-1-yl)-6-(trifluoromethyl)pyridin-3-yl)methyl)urea], for which the inhibition constant (Ki) amounted to 1 nM. Same read-out and setting: as for `CC1CCN(c2nc(C(F)(F)F)ccc2CNC(=O)Nc2ccc3cnccc3c2)CC1` [Example 83, 1-(Isoquinolin-6-yl)-3-((2-(4-methylpiperidin-1-yl)-6-(trifluoromethyl)pyridin-3-yl)methyl)urea], the figure is 7 nM; as for `CC1CCN(c2nc(C(F)(F)F)ccc2CNC(=O)Nc2ccc3ccncc3c2)CC1` [Example 84, 1-(Isoquinolin-7-yl)-3-((2-(4-methylpiperidin-1-yl)-6-(trifluoromethyl)pyridin-3-yl)methyl)urea], 8 nM; as for `O=C(NCc1ccc(C(F)(F)F)nc1SC1CCCCC1)Nc1cccc2ccncc12` [Example 85, 1-((2-(Cyclohexylthio)-6-(trifluoromethyl)pyridin-3-yl)methyl)-3-(isoquinolin-8-yl)urea], 1 nM. Still for that read-out and setting: the figure for `Cc1nccc2cccc(NC(=O)NCc3ccc(C(F)(F)F)nc3N3CCC(C)CC3)c12` [Example 86, 1-(1-Methylisoquinolin-8-yl)-3-((2-(4-methylpiperidin-1-yl)-6-(trifluoromethyl)pyridin-3-yl)methyl)urea] is 52 nM; for `Cc1cc2cccc(NC(=O)NCc3ccc(C(F)(F)F)nc3N3CCC(C)CC3)c2cn1` [Example 87, 1-(3-Methylisoquinolin-8-yl)-3-((2-(4-methylpiperidin-1-yl)-6-(trifluoromethyl)pyridin-3-yl)methyl)urea] it is 15 nM. On the same count and under the same terms, the figure for `COc1ccc(NC(=O)NCc2ccc(C(F)(F)F)nc2N2CCC(C)CC2)c2cnccc12` [Example 88, 1-(5-Methoxyisoquinolin-8-yl)-3-((2-(4-methylpiperidin-1-yl)-6-(trifluoromethyl)pyridin-3-yl)methyl)urea] is 62 nM. Consider `CC1CCN(c2nc(C(F)(F)F)ccc2CNC(=O)Nc2cccc3c(O)ncnc23)CC1` [Example 89, 1-(4-Hydroxyquinazolin-8-yl)-3-((2-(4-methylpiperidin-1-yl)-6-(trifluoromethyl)pyridin-3-yl)methyl)urea], for which the Ki worked out at 17 nM.

Turning to `CC1CCN(c2nc(C(F)(F)F)ccc2CNC(=O)Nc2ccc3cncnc3c2)CC1` [Example 91, 1-((2-(4-Methylpiperidin-1-yl)-6-(trifluoromethyl)pyridin-3-yl)methyl)-3-(quinazolin-7-yl)urea], the Ki is 8 nM. Same read-out and setting: as for “N-(2-(4-Methylpiperidin-1-yl)-4-(trifluoromethyl)benzyl)-2-(quinolin-3-yl)propanamide [Example 16]”, the figure is 10 nM.

Source of the values: patent US9029378B2, “Substituted bicyclic aromatic carboxamide and urea compounds as vanilloid receptor ligands” (Gruenenthal GmbH, priority 2011, dated 2015).
